Test results taken from patent publication US11512080B2, “CRBN ligands and uses thereof” (Kymera Therapeutics, Inc., priority 2018, dated 2022).
Like-named read-outs stand apart in the source and are kept apart here.

Target: His-tagged CRBN-DDB1 complex (Homo sapiens (Human), UniProt Q96SW2)
Test: Time-Resolved Fluorescence Resonance Energy Transfer (TR-FRET) assay
Format: binding
Details: read-out: CRBN HTRF IC50
Description: The mixture were incubated at room temperature for 1 hour. […] Quantitative loss of FRET efficiency as a function of compound concentrations was fitted by a four-parameter Logistic Function using GraphPad Prism 7.0 and the IC50 values were reported for each compound.
The compound numbers correspond to the compound numbers in Table 1.

[1] = competition with Cy5-labeled thalidomide (8 nM), 1 hour at room temperature

Sequence of His-tagged CRBN-DDB1 complex (Q96SW2 whole entry): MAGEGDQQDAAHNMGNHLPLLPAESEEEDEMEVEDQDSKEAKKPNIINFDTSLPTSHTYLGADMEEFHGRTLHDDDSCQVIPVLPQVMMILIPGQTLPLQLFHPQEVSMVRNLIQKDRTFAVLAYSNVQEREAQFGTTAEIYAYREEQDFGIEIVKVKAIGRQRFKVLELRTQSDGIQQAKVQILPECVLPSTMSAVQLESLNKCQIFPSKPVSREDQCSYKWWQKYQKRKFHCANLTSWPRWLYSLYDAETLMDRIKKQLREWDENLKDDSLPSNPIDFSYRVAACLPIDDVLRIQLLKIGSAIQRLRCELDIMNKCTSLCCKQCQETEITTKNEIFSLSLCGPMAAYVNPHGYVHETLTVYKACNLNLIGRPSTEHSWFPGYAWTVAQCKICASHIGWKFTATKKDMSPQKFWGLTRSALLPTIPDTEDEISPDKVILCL
Sequence of His-tagged CRBN-DDB1 complex (Q16531 whole entry partner): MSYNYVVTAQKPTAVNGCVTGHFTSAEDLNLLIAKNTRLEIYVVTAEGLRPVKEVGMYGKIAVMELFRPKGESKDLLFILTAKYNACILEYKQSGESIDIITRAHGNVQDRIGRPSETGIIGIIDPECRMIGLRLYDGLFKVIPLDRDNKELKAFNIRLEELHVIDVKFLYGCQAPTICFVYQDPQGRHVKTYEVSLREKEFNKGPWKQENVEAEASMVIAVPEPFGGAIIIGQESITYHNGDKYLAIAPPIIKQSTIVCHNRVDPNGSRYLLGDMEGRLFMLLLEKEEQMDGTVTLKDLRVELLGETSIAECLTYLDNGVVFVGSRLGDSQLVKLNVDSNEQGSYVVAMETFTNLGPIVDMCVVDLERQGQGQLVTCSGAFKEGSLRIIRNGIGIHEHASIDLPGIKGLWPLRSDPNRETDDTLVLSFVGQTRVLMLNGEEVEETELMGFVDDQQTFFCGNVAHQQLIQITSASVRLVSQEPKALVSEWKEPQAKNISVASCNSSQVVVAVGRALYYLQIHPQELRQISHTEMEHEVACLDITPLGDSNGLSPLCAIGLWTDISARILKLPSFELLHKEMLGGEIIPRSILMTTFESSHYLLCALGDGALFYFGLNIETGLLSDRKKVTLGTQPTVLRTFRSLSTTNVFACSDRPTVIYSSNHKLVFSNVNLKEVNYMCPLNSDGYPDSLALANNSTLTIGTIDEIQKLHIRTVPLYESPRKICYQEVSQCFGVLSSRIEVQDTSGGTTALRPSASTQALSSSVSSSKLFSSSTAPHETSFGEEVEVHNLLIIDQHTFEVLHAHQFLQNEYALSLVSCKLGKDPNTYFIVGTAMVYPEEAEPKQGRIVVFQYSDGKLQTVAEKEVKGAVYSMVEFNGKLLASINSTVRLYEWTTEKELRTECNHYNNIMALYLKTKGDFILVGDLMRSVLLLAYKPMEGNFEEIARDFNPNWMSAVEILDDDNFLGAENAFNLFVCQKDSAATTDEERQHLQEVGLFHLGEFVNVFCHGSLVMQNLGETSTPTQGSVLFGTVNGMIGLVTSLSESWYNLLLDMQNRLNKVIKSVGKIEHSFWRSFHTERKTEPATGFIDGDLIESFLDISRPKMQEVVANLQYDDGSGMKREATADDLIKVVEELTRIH

| Compound | IC50 [µM] | IC50 [1] [µM] |
| --- | --- | --- |
| CN1CCN(c2ccc(OC3CCC(=O)NC3=O)cc2)CC1 (stereo not shown) [Compound I-128] | 10 to 100 | – |
| O=C1CCC(Oc2cccc3cccnc23)C(=O)N1 (stereo not shown) [Compound I-129] | 10 to 100 | – |
| NC(=O)c1ccnc(SC2CCC(=O)NC2=O)c1 (stereo not shown) [Compound I-130, 2-((2,6-Dioxopiperidin-3-yl)thio)isonicotinamide] | 1 to 10 | – |
| CNC(=O)c1ccnc(SC2CCC(=O)NC2=O)c1 (stereo not shown) [Compound I-131, 2-((2,6-Dioxopiperidin-3-yl)thio)-N-methylisonicotinamide] | 10 to 100 | – |
| CN(C)C(=O)c1ccnc(SC2CCC(=O)NC2=O)c1 (stereo not shown) [Compound I-132, 2-((2,6-Dioxopiperidin-3-yl)thio)-N,N-dimethylisonicotinamide] | 10 to 100 | – |
| O=C1CCC(Sc2ccc(C(=O)O)cn2)C(=O)N1 (stereo not shown) [Compound I-133, 6-((2,6-Dioxopiperidin-3-yl)thio)nicotinic Acid] | 10 to 100 | – |
| N#Cc1cccc(SC2CCC(=O)NC2=O)c1 (stereo not shown) [Compound I-134] | 10 to 100 | – |
| CCN(CC)c1ccc(SC2CCC(=O)NC2=O)cc1 (stereo not shown) [Compound I-135] | 1 to 10 | – |
| O=C1CCC(Sc2cccc(C(=O)O)n2)C(=O)N1 (stereo not shown) [Compound I-136] | 1 to 10 | – |
| Cc1c(SC2CCC(=O)NC2=O)cccc1C(=O)O (stereo not shown) [Compound I-137, 3-((2,6-Dioxopiperidin-3-yl)thio)-2-methylbenzoic acid] | 10 to 100 | – |
| Cc1coc(-c2ccnc(SC3CCC(=O)NC3=O)c2)n1 (stereo not shown) [Compound I-138, 3-((4-(4-Methyloxazol-2-yl)pyridin-2-yl)thio)piperidine-2,6-dione] | 1 to 10 | – |
| O=C1CCC(Sc2cc(-c3nn[nH]n3)ccn2)C(=O)N1 (stereo not shown) [Compound I-139, 3-((4-(2H-Tetrazol-5-yl)pyridin-2-yl)thio)piperidine-2,6-dione] | 1 to 10 | – |
| NC(=O)c1cccnc1SC1CCC(=O)NC1=O (stereo not shown) [Compound I-140, 2-((2,6-Dioxopiperidin-3-yl)thio)nicotinamide] | 1 to 10 | – |
| CN(C)C(=O)c1cccnc1SC1CCC(=O)NC1=O (stereo not shown) [Compound I-141] | 10 to 100 | – |
| COCCOCCNC(=O)c1cccnc1SC1CCC(=O)NC1=O (stereo not shown) [Compound I-142] | 1 to 10 | – |
| Cn1cccc(N2CCC(=O)NC2=O)c1=O [Compound I-143] | – | > 100 |
| Cn1c(=O)c(N2CCC(=O)NC2=O)cc2ccccc21 [Compound I-144, 1-(1-Methyl-2-oxo-1,2-dihydroquinolin-3-yl)dihydropyrimidine-2,4(1H,3H)-dione] | – | > 100 |
| CN1Cc2ccccc2C(N2CCC(=O)NC2=O)C1=O (stereo not shown) [Compound I-145, 1-(2-Methyl-3-oxo-1,2,3,4-tetrahydroisoquinolin-4-yl)dihydropyrimidine-2,4(1H,3H)-dione] | – | > 100 |
| Cn1cc2ccccc2c(N2CCC(=O)NC2=O)c1=O [Compound I-146, 1-(2-Methyl-3-oxo-2,3-dihydroisoquinolin-4-yl)dihydropyrimidine-2,4(1H,3H)-dione] | – | > 100 |
